This note sets out measurements from US20100129470A1, “METHOD OF TREATING BRAIN CANCER” (Myriad Pharmaceuticals, Incorporated, priority 2007, published 2010).

This data set relates to Subjects with Refractory Solid Tumors. The data set is described as follows: Phase I clinical trial: open-label, dose-escalating, multiple-dose study of weekly intravenous administration. Type of data set: in vivo. The conditions noted are these: human subjects. The method, then:
An open-label, dose-escalating, multiple-dose study to define the safety, tolerability and phamacokinetics of weekly intravenous administration of (4-Methoxy-phenyl)-methyl-(2-methyl-quinazolin-4-yl)-amine hydrochloride was performed. A dosing schedule (each 4 week cycle) was performed for (4-Methoxy-phenyl)-methyl-(2-methyl-quinazolin-4-yl)-amine hydrochloride weekly for 3 weeks with no infusion on the fourth week of each cycle. Subjects with refractory solid tumors were enrolled in cohorts of 3. During Cycle 1, subjects were hospitalized during each infusion of (4-Methoxy-phenyl)-methyl-(2-methyl-quinazolin-4-yl)-amine hydrochloride and remained for observation and safety evaluation for approximately 24 hours following the end of the infusion. All subject had continuous telemetry for 2 hours prior to infusion, for 1-2 hour infusion and for 3 hours after the end of the infusion. Any clinically significant electrocardiographic (ECG) wave form abnormality was recorded and prolongation of the monitoring period extended at the discretion of the principal investigator.
Electrocardiograms were obtrained prior to starting the infusion and within 30 minutes of the end of infusion for each infusino of the first cycle. Electrocardiograms on Day 1 were obtained in triplicate 5 minutes apart.
Neurocognitive assessments were made by administration of the Mini-Mental State Examination (MMSE), the Hopkins Verbal Learning and timed Grooved Pegboard tests before administration of the intravenous infusion and approximately 24 hours of the infusion at each weekly administration of the first cycle.
On days 1, 8, and 15 of each cycle, vital signs were obtained prior to the first dose, at 15, 30, and 60 minutes after the initiation of the infusion, and at 0.5, 1, 1.5, 2, and 4 hours after the end of the intravenous infusion. Vital signs at all time points beyond the start of the intravenous infusion included heart rate, blood pressure and respirations. Temperature ws measured at the end of the infusion and 4 hours later.
Individual subjects were allowed to continue on repeated weekly×3 administrations every 28 days with no dose increase provided there was no unacceptable toxicity or disease progression.
Tumor response was evaluated by response evaluation criteria in solid tumors (RECIST) criteria. To prevent sever hypersensitivity reactions due to Cremophor® EL, subjects were premedicated with oral dexamethasone (20 mg) administered approximately 12 and 6 hours before the intrvenous infusion with (4-Methoxy-phenyl)-methyl-(2-methyl-quinazolin-4-yl)-amine hydrochloride, diphenhydramine (50 mg) or its equivalent administered intravenously 30-60 minutes before (4-Methoxy-phenyl)-methyl-(2-methyl-quinazolin-4-yl)-amine hydrochloride, and cimetidine (300 mg) or ranitidine (50 mg) administered intravenously 30-60 minutes before (4-Methoxy-phenyl)-methyl-(2-methyl-quinazolin-4-yl)-amine hydrochloride.

The mark [1] stands for this setting: weekly i.v. infusion, 0.3-3.3 mg/m^2.

Entries after “also recorded” stand apart in the source; their conditions may differ. Counter-ions that a name gives are not always drawn.

As to `COc1ccc(N(C)c2nc(C)nc3ccccc23)cc1` [(4-Methoxy-phenyl)-methyl-(2-methyl-quinazolin-4-yl)-amine hydrochloride], under “ECG, weekly i.v. infusion, 0.3-3.3 mg/m^2”, the “effects on cardiac conduction (PR, QRS or QTc)” value is “no significant effects”. Besides, the safety and tolerability result (weekly i.v. administration, various dosages, hydrochloride) was “safe and well tolerated; also recorded: safe and tolerable”. Further, the peripheral cytotoxicity entry (weekly i.v. infusion for 3 weeks of each 4 week cycle, 0.3-3.3 mg/m^2) is listed as “no evidence of cytotoxity peripherally”. In addition, under setting [1], the bradycardia entry is given as “occasional episodes of bradycardia”; the dose limiting toxicity entry is “vascular in nature, manifested by an acute coronary syndrome”; the intratumor bleeding entry is “incidences of intratumor bleeding”; the systolic blood pressure result is “dose-related increase”.
